This is an account of results in patent US20260041679A1, “METHOD OF TREATING HYPERTENSION WITH THE ALDOSTERONE SYNTHASE INHIBITOR BAXDROSTAT” (CINCOR PHARMA, INC., priority 2022, published 2026).

For series [1] the following is noted: PATHWAY-2 study; cited from earlier work.
A short description of series [2]: Pharmacokinetics in subjects with varying degrees of renal function (Example 4). It is filed as in vivo, human. On the procedure:
This phase 1, open-label, single-dose, parallel-group study was designed in accordance with the FDA guidance for the design and analysis of studies that assess the influence of impaired renal function on PK. Subjects were enrolled into three renal function groups defined based on eGFR calculated using the Chronic Kidney Disease Epidemiology Collaboration equation as follows: […]
Control(normal renal function or mild renal impairment:eGFR≥60 mL/min) • Moderate to severe renal impairment (eGFR 15 to 59 mL/min) • Kidney failure (eGFR<15 mL/min, including subjects on dialysis)
All subjects received a single 10 mg dose of baxdrostat in an open-label manner. […] All subjects were required to fast for a minimum of 10 hours prior to baxdrostat administration. They were then dosed at 8:00 AM (±2 hours) with two 5 mg tablets administered with approximately 240 mL of water. Subjects continued fasting for a minimum of 4 hours after dosing. No other medications were permitted within 2 hours prior to dosing and for 2 hours after dosing with baxdrostat. Subjects on dialysis received the study drug on a non-dialysis day. Blood and urine sample collection for PK analysis continued for 7 days and was proceeded by a follow-up phone call 3±1 days after clinic discharge.
Plasma and urine samples were analyzed to measure concentrations of baxdrostat and its primary metabolite (baxdrostat-M) using a validated LC-MS/MS method. “Baxdrostat-M” as used herein refers a compound having the following structure:
Blood and urine samples were collected prior to and after dosing for measurement of plasma and urine baxdrostat and baxdrostat-M concentrations to characterize maximum observed plasma concentration (Cmax), time to Cmax (Tmax), AUC0-last, and AUC0-inf for baxdrostat and baxdrostat-M. The t1/2, CL/F, and V/F were calculated for plasma baxdrostat only. Urine PK parameters included the cumulative amount of baxdrostat and baxdrostat-M excreted in urine (Ae), renal clearance (CLR) of baxdrostat and baxdrostat-M, and fraction of dose excreted renally (Fe) for baxdrostat.

Series [3] is described as follows: Plasma PK of baxdrostat and baxdrostat-M in the metformin crossover study (Example 6A). Particulars: single 10-mg dose of baxdrostat; for AUC(0-t) / Cmax / Tmax: human. It is filed as in vivo, human. The protocol: This study was designed as a phase 1, randomized, open-label, 2-period, crossover trial. Each subject participated in a screening period of up to 26 days followed by 2 inpatient treatment periods and a follow-up phone call. […] Plasma samples were extracted by protein precipitation with methanol, followed by analysis by LC-MS/MS with ESI(+) and MRM. Reversed-phase chromatographic separation with a mobile phase gradient of 20% to 90% was utilized, and total run time was approximately 5 minutes. […] PK parameters were calculated using noncompartmental methods with SAS software, version 9.4 (SAS Institute). […] Tmax; […] AUC0-t; AUC0-inf, AUC0-inf extrapolated; λz; and t1/2. Plasma AUC0-72 was assessed only for baxdrostat and baxdrostat-M. […] Urine PK parameters included Ae, renal clearance (calculated as Ae/AUC), and the fraction of dose excreted renally.

The conditions of series [4]: human, in vivo, 1000 mg.
The conditions of series [5]: TEAEs by MedDRA class.
Description: Safety assessments included monitoring of AEs, physical examinations, ECGs, orthostatic vital signs, and clinical laboratory evaluations.
The nature of the next series: clinical. The note with it: human, in vivo; for CL renal: CLR (urine); for Tmax: Tmax (plasma).

Like-named read-outs stand apart in the source and are kept apart here.

As for `CC(=O)S[C@@H]1CC2=CC(=O)CC[C@]2(C)[C@H]2CC[C@@]3(C)[C@@H](CC[C@@]34CCC(=O)O4)[C@H]12` [spironolactone], the rate of hyperkalemia in series [1] is 2.1%.
In the case of `CN1C(=O)CCc2cc(-c3cncc4c3CCCC4O)ccc21` (stereo not drawn) [baxdrostat-M], the Tmax – broadly, the time at which the peak concentration occurs – in series [2] (human, plasma, oral, 10 mg, all renal function groups, after single 10 mg baxdrostat, read-out: Tmax) was ~22 h; in series [3] (read-out: Tmax, GM), 12.4 h; in series [3] (read-out: Tmax, Mean) it was 15.7 h. The “plasma concentration-time curves vs control” value in series [2] (moderate to severe renal impairment and kidney failure groups) is given as “qualitatively similar to the control group”. Moreover, the AUC(0-t) in series [3] (read-out: AUC0-24, GM) was found to be 103 ng·h/mL; in series [3] (read-out: AUC0-24, Mean) it was 111 ng·h/mL; in series [3] (read-out: AUC0-72, GM) it was 248 ng·h/mL; in series [3] (read-out: AUC0-72, Mean), 264 ng·h/mL. Moreover, the Cmax – broadly, the highest concentration seen after dosing – in series [3] (read-out: Cmax, GM) worked out at 6.16 ng/mL; in series [3] (read-out: Cmax, Mean), 6.72 ng/mL. In series [3], the “λz, GM” value is 0.030 h⁻¹. The “λz, Mean” value in series [3] was found to be 0.030 h⁻¹.
On to `CN(C)C(=N)N=C(N)N` [Metformin, metformin], for which, in series [4], the “AUC0-inf (plasma), GM” value was 11,087.78 h · ng/mL; the “AUC0-inf (plasma), Mean” value is 11,224.76 h · ng/mL; the “AUC0-t (plasma), GM” value is 11,024.21 h · ng/mL; the “AUC0-t (plasma), Mean” value is given as 11,158.75 h · ng/mL. Further, in series [4], the “Cmax (plasma), GM” value is 1732.62 ng/mL and the “Cmax (plasma), Mean” value stood at 1765.39 ng/mL. Further, in series [5], the “Abdominal pain upper, No. (%)” value is given as 1 (3.8) No. (%); the “Burns first degree, No. (%)” value is on record as 1 (3.8) No. (%); the “Diarrhea, No. (%)” value is 3 (11.5) No. (%); the “Dizziness postural, No. (%)” value is listed as 0 (0.0) No. (%). Besides, in series [5], the “Flatulence, No. (%)” value is on record as 0 (0.0) No. (%); the “Gastrointestinal disorders, No. (%)” value is 4 (15.4) No. (%); the “General disorders and administration site conditions, No. (%)” value was 0 (0.0) No. (%); the “Injury, poisoning, and procedural complications, No. (%)” value is 1 (3.8) No. (%). Further, in series [5], the “Nausea, No. (%)” value is 1 (3.8) No. (%); the “Nervous system disorders, No. (%)” value is 0 (0.0) No. (%); the “Presyncope, No. (%)” value is 0 (0.0) No. (%); the “Vessel puncture site pain, No. (%)” value is recorded as 0 (0.0) No. (%). The “Diarrhea, No. (%)” value in series [5] (listed as metformin) is 3 (11.5%) No. (%). In the series “clinical” (1000 mg, GM), this compound gave a CL renal of 460 mL/min. Also, the CL renal in the series “clinical” (1000 mg, Mean) is 466 mL/min. Moreover, the Tmax in “clinical” (1000 mg, Mean (SD)) was 2.14 h. The CL renal in the series “clinical” (GM) was 430 mL/min. This compound gave a CL renal in the series “clinical” (Mean) of 441 mL/min. Further, in “clinical” (GM (CV %)), the Tmax is 1.92 h. For the same compound, the Tmax in “clinical” (Mean (SD)) amounted to 2.04 h.
